# Measurements reported in the supplement of paper PMC10307832.
# Key:
# Experiment in all cases: relative viability (nuclei count vs DMSO), 5 days (fraction); higher = more cells survive
# RU-SKI 43 + Olaparib = compound: CC[C@@H](C)CNCC(=O)N1CCC2=C([C@@H]1COC3=CC=CC(=C3)C)C=CS2 [RU-SKI 43] + O=C(c1cc(Cc2n[nH]c(=O)c3ccccc23)ccc1F)N1CCN(C(=O)C2CC2)CC1 [Olaparib] (partner 8 µM)
# Method in brief: (§1)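 Lung cancer cell lines in 1536-well plates were dosed by pin tool the day after seeding, either with one drug alone or with a fixed anchor-drug dose plus five library-drug doses (not always all listed) in √10 steps. After 5 days, cells were fixed and their nuclei stained in one step (final 0.05% Triton X-100, 1% formaldehyde, 1 ug/ml Hoechst), then counted on 4× images. Relative viability is the nuclei count in treated wells divided by that in vehicle wells. Values are medians of duplicate plates.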
# Irinotecan + Vorinostat = compound: CCc1c2c(nc3ccc(OC(=O)N4CCC(N5CCCCC5)CC4)cc13)-c1cc3c(c(=O)n1C2)COC(=O)[C@]3(O)CC [Irinotecan] + O=C(CCCCCCC(=O)Nc1ccccc1)NO [Vorinostat] (partner 1 µM)
# Method in brief: as §1
# RU-SKI 43 + AZD7762 = compound: CC[C@@H](C)CNCC(=O)N1CCC2=C([C@@H]1COC3=CC=CC(=C3)C)C=CS2 [RU-SKI 43] + NC(=O)Nc1cc(-c2cccc(F)c2)sc1C(=O)N[C@H]1CCCNC1 [AZD7762] (partner 0.2 µM)
# Method in brief: as §1
# RU-SKI 43 + Vorinostat = compound: CC[C@@H](C)CNCC(=O)N1CCC2=C([C@@H]1COC3=CC=CC(=C3)C)C=CS2 [RU-SKI 43] + O=C(CCCCCCC(=O)Nc1ccccc1)NO [Vorinostat] (partner 1 µM)
# Method in brief: as §1
Cell Line,relative viability (RU-SKI 43 + Olaparib; first compound 0.1 µM),relative viability (RU-SKI 43 + Olaparib; first compound 0.3162 µM),relative viability (RU-SKI 43 + Olaparib; first compound 1 µM),relative viability (RU-SKI 43 + Olaparib; first compound 3.162 µM),relative viability (RU-SKI 43 + Olaparib; first compound 10 µM),relative viability (Irinotecan + Vorinostat; first compound 0.6325 µM),relative viability (Irinotecan + Vorinostat; first compound 2 µM),relative viability (Irinotecan + Vorinostat; first compound 6.325 µM),relative viability (Irinotecan + Vorinostat; first compound 20 µM),relative viability (RU-SKI 43 + AZD7762; first compound 0.1 µM),relative viability (RU-SKI 43 + AZD7762; first compound 0.3162 µM),relative viability (RU-SKI 43 + AZD7762; first compound 1 µM),relative viability (RU-SKI 43 + AZD7762; first compound 3.162 µM),relative viability (RU-SKI 43 + AZD7762; first compound 10 µM),relative viability (RU-SKI 43 + Vorinostat; first compound 0.1 µM),relative viability (RU-SKI 43 + Vorinostat; first compound 0.3162 µM),relative viability (RU-SKI 43 + Vorinostat; first compound 1 µM),relative viability (RU-SKI 43 + Vorinostat; first compound 3.162 µM),relative viability (RU-SKI 43 + Vorinostat; first compound 10 µM)
HCC-78,0.849,1.02,0.767,0.868,0.856,0.56,0.322,0.291,0.288,0.716,0.638,0.85,0.6,0.695,0.531,0.378,0.469,0.475,0.439
NCI-H441,0.709,0.576,0.627,0.736,0.542,0.443,0.305,0.233,0.197,0.795,1.55,1.23,1.22,1.17,0.752,0.97,0.97,0.741,0.849
NCI-H1299,0.948,0.995,1.04,0.99,0.959,,,,,,,,,,,,,,
LU99A,0.261,0.276,0.285,0.271,0.262,0.305,0.169,0.124,0.127,0.255,0.377,0.264,0.267,0.343,0.476,0.558,0.479,0.447,0.359
NCI-H1651,0.16,0.188,0.195,0.213,0.185,0.362,0.533,0.364,0.158,0.506,0.467,0.549,0.535,0.456,0.617,0.573,0.676,0.559,0.548
HARA,0.822,0.735,0.754,0.894,0.923,,0.146,0.122,0.135,0.469,0.243,0.301,0.357,0.279,0.568,0.52,0.485,0.517,0.548
RERF-LC-KJ,0.818,1.04,0.914,0.876,0.811,0.462,0.586,0.48,0.271,0.97,1.01,1.21,1.17,1.04,0.695,0.699,0.654,0.702,0.546
LCLC-103H,0.748,0.865,0.882,0.829,0.816,0.449,0.554,0.623,0.563,0.832,0.804,0.788,0.821,0.763,0.804,0.821,0.855,0.781,0.729
SK-LU-1,0.449,0.397,0.531,0.46,0.44,0.435,0.431,0.45,0.313,,,,,,0.738,0.893,0.882,0.795,0.775
Calu-6,0.555,0.621,0.622,0.615,0.499,,,,,,,,,,,,,,
NCI-H1648,1.02,1.06,0.614,0.91,0.835,0.379,0.423,0.355,0.279,0.502,0.626,0.656,0.694,0.628,0.416,0.572,0.563,0.51,0.754
NCI-H522,0.661,0.641,0.596,0.707,0.601,0.734,0.727,0.59,0.65,0.918,0.984,1.04,0.859,0.853,0.88,0.803,1.01,0.941,0.932
LOU-NH91,0.908,0.94,0.973,0.926,0.879,0.837,0.875,0.315,0.147,0.789,0.74,0.85,0.831,0.74,1.01,0.871,1.03,0.979,0.902
HCC-366,0.307,0.464,0.314,0.424,0.31,0.145,0.137,0.0609,0.069,0.268,0.252,0.321,0.34,0.216,0.276,0.493,0.439,0.438,0.328
CAL-12T,0.709,0.804,0.855,0.666,0.698,0.733,0.592,0.403,0.259,0.644,0.735,0.698,0.714,0.648,0.77,0.89,0.909,0.699,0.692
PC-3 [JPC-3],1.09,1.3,1.2,1.2,1.06,0.625,0.914,0.411,0.419,0.885,0.671,0.828,0.834,0.336,0.947,0.727,0.982,0.651,0.876
